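The compound was tested at five concentrations on cells cultured in 96-well plates, with a 48-hour exposure period. Abbreviation: GI50, concentration required for 50% inhibition of growth.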 Active and inactive are the calls of the source. Rule as the data show it: active = GI50 up to about 1.1 µM and inactive = higher.
Legend:
Assay in all cases: NCI tumour cell line growth inhibition, 48 h
HT-29 = test system: HT-29
EKVX = test system: EKVX
T47D = test system: T47D
NCI-H460 = test system: NCI-H460
HOP-62 = test system: HOP-62
786-0 = test system: 786-0
COLO 205 = test system: COLO 205
A549 = test system: A549
KM12 = test system: KM12
OVCAR-8 = test system: OVCAR-8
MDA-MB-435 = test system: MDA-MB-435
LOX IMVI = test system: LOX IMVI
A498 = test system: A498
MCF7 = test system: MCF7
RXF 393 = test system: RXF 393
SNB-19 = test system: SNB-19
UACC-257 = test system: UACC-257
NCI-H23 = test system: NCI-H23
SK-MEL-2 = test system: SK-MEL-2
SK-MEL-28 = test system: SK-MEL-28
CAKI-1 = test system: CAKI-1
DU-145 = test system: DU-145
RPMI-8226 = test system: RPMI-8226
CCRF-CEM = test system: CCRF-CEM
SW-620 = test system: SW-620
UACC-62 = test system: UACC-62
TK-10 = test system: TK-10
MOLT-4 = test system: MOLT-4
SK-MEL-5 = test system: SK-MEL-5
MDA-N = test system: MDA-N
SF-268 = test system: SF-268
SR = test system: SR
M14 = test system: M14
K562 = test system: K562
NCI/ADR-RES = test system: NCI/ADR-RES
MDA-MB-231 = test system: MDA-MB-231
OVCAR-3 = test system: OVCAR-3
BT-549 = test system: BT-549
SNB-75 = test system: SNB-75
ACHN = test system: ACHN
NCI-H522 = test system: NCI-H522
SK-OV-3 = test system: SK-OV-3
HCT-15 = test system: HCT-15
HCC 2998 = test system: HCC 2998
PC-3 = test system: PC-3
NCI-H226 = test system: NCI-H226
SN12C = test system: SN12C
HL-60 = test system: HL-60
UO-31 = test system: UO-31
SF-539 = test system: SF-539
SF-295 = test system: SF-295
OVCAR-4 = test system: OVCAR-4
OVCAR-5 = test system: OVCAR-5
HCT-116 = test system: HCT-116
U-251 = test system: U-251
Hs-578T = test system: Hs-578T
Malme-3M = test system: Malme-3M
IGROV-1 = test system: IGROV-1
HOP-92 = test system: HOP-92

With `O=c1c(-c2ccc(O)cc2)coc2cc(OC3OC(CO)C(O)C(O)C3O)cc(O)c12` (stereo not drawn) the GI50 (HT-29) was > 100 µM (inactive), the GI50 (EKVX) was 38.8 µM (inactive) and the GI50 (T47D) was > 10 µM (inactive). For the same compound, the GI50 (NCI-H460) was 46.9 µM (inactive), the GI50 (HOP-62) was > 10 µM (inactive) and the GI50 (786-0) was 75.5 µM (inactive). For the same compound, the GI50 (COLO 205) was > 10 µM (inactive), the GI50 (A549) was 60.3 µM (inactive) and the GI50 (KM12) was > 100 µM (inactive). For the same compound, the GI50 (OVCAR-8) was > 100 µM (inactive), the GI50 (MDA-MB-435) was > 10 µM (inactive) and the GI50 (LOX IMVI) was 79.8 µM (inactive). For the same compound, the GI50 (A498) was > 100 µM (inactive), the GI50 (MCF7) was > 10 µM (inactive) and the GI50 (RXF 393) was 40 µM (inactive). For the same compound, the GI50 (SNB-19) was > 100 µM (inactive), the GI50 (UACC-257) was > 100 µM (inactive) and the GI50 (NCI-H23) was > 10 µM (inactive). For the same compound, the GI50 (SK-MEL-2) was > 10 µM (inactive), the GI50 (SK-MEL-28) was > 10 µM (inactive) and the GI50 (CAKI-1) was 60.4 µM (inactive). The GI50 (DU-145) was > 100 µM (inactive), the GI50 (RPMI-8226) was 51.8 µM (inactive) and the GI50 (CCRF-CEM) was 38.8 µM (inactive). For the same compound, the GI50 (SW-620) was > 10 µM (inactive), the GI50 (UACC-62) was 81.3 µM (inactive) and the GI50 (TK-10) was 33 µM (inactive). For the same compound, the GI50 (MOLT-4) was 43.1 µM (inactive), the GI50 (SK-MEL-5) was > 10 µM (inactive) and the GI50 (MDA-N) was > 100 µM (inactive). The GI50 (SF-268) was 41.7 µM (inactive), the GI50 (SR) was 30.3 µM (inactive) and the GI50 (M14) was > 10 µM (inactive). For the same compound, the GI50 (K562) was > 10 µM (inactive), the GI50 (NCI/ADR-RES) was > 10 µM (inactive) and the GI50 (MDA-MB-231) was > 100 µM (inactive). For the same compound, the GI50 (OVCAR-3) was > 100 µM (inactive), the GI50 (BT-549) was 58.5 µM (inactive) and the GI50 (SNB-75) was 35.7 µM (inactive). The GI50 (ACHN) was 54.5 µM (inactive), the GI50 (NCI-H522) was 45.7 µM (inactive) and the GI50 (SK-OV-3) was > 10 µM (inactive). For the same compound, the GI50 (HCT-15) was greater than 100 µM, the GI50 (HCC 2998) was > 100 µM (inactive) and the GI50 (PC-3) was 63.8 µM (inactive). For the same compound, the GI50 (NCI-H226) was > 100 µM (inactive), the GI50 (SN12C) was > 100 µM (inactive) and the GI50 (HL-60) was > 10 µM (inactive). The GI50 (UO-31) was 22.2 µM (inactive), the GI50 (SF-539) was 31.1 µM (inactive) and the GI50 (SF-295) was 92.7 µM (inactive). The GI50 (OVCAR-4) was > 10 µM (inactive), the GI50 (OVCAR-5) was > 10 µM (inactive) and the GI50 (HCT-116) was > 100 µM (inactive). For the same compound, the GI50 (U-251) was > 10 µM (inactive), the GI50 (Hs-578T) was 61.1 µM (inactive) and the GI50 (Malme-3M) was > 10 µM (inactive). For the same compound, the GI50 (IGROV-1) was > 10 µM (inactive).

In the case of `CCOc1ccc(C(c2c(O)c3ccccc3oc2=O)c2c(O)c3ccccc3oc2=O)cc1`, the GI50 (HT-29) is reported as 40.9 µM (inactive), the GI50 (EKVX) is reported as 80.4 µM (inactive) and the GI50 (T47D) is reported as 41.4 µM (inactive). For the same compound, the GI50 (HOP-62) was 61.5 µM (inactive), the GI50 (786-0) was 78.2 µM (inactive) and the GI50 (COLO 205) was > 100 µM (inactive). The GI50 (A549) was 69.8 µM (inactive), the GI50 (KM12) was 56.9 µM (inactive) and the GI50 (HOP-92) was 23.6 µM (inactive). For the same compound, the GI50 (OVCAR-8) was 43.9 µM (inactive), the GI50 (MDA-MB-435) was 70.3 µM (inactive) and the GI50 (LOX IMVI) was 66.5 µM (inactive). The GI50 (A498) was 36.1 µM (inactive), the GI50 (MCF7) was 46.6 µM (inactive) and the GI50 (SNB-19) was 91 µM (inactive). For the same compound, the GI50 (UACC-257) was 35.6 µM (inactive), the GI50 (NCI-H23) was 44.4 µM (inactive) and the GI50 (SK-MEL-2) was 24.1 µM (inactive). For the same compound, the GI50 (SK-MEL-28) was 80 µM (inactive), the GI50 (CAKI-1) was 93.8 µM (inactive) and the GI50 (DU-145) was > 100 µM (inactive). The GI50 (RPMI-8226) was 32.2 µM (inactive), the GI50 (CCRF-CEM) was 27 µM (inactive) and the GI50 (SW-620) was 79.4 µM (inactive). For the same compound, the GI50 (UACC-62) was 38.7 µM (inactive), the GI50 (TK-10) was 49.5 µM (inactive) and the GI50 (MOLT-4) was 33.6 µM (inactive). The GI50 (SK-MEL-5) was 44.5 µM (inactive), the GI50 (MDA-N) was 60 µM (inactive) and the GI50 (SF-268) was 44.5 µM (inactive). For the same compound, the GI50 (SR) was 26 µM (inactive), the GI50 (M14) was 42.3 µM (inactive) and the GI50 (K562) was 53.8 µM (inactive). For the same compound, the GI50 (NCI/ADR-RES) was 98.6 µM (inactive), the GI50 (MDA-MB-231) was 58.5 µM (inactive) and the GI50 (OVCAR-3) was 43.8 µM (inactive). The GI50 (BT-549) was 67.8 µM (inactive), the GI50 (ACHN) was 74.6 µM (inactive) and the GI50 (NCI-H522) was 30.7 µM (inactive). For the same compound, the GI50 (SK-OV-3) was 47.4 µM (inactive), the GI50 (HCT-15) was 65.5 µM and the GI50 (PC-3) was 29.6 µM (inactive). The GI50 (NCI-H226) was 95.9 µM (inactive), the GI50 (SN12C) was 43.8 µM (inactive) and the GI50 (HL-60) was 19.9 µM (inactive). The GI50 (UO-31) was 20.5 µM (inactive), the GI50 (SF-539) was 48 µM (inactive) and the GI50 (SF-295) was > 100 µM (inactive). For the same compound, the GI50 (OVCAR-4) was > 100 µM (inactive), the GI50 (OVCAR-5) was > 100 µM (inactive) and the GI50 (HCT-116) was 48.4 µM (inactive). The GI50 (U-251) was 32.7 µM (inactive), the GI50 (Hs-578T) was 37.6 µM (inactive) and the GI50 (Malme-3M) was 48.8 µM (inactive). The GI50 (IGROV-1) was > 100 µM (inactive).
